Measured values reported in patent publication US20220387608A1, “ADRENOMEDULLIN-ANALOGUES FOR LONG-TERM STABILIZATION AND THEIR USE” (Bayer Aktiengesellschaft, priority 2019, published 2022).
Positions of bridges follow the written chain, without caps; N, C: chain ends. Non-standard residues stand in square brackets, D forms with d. Residues, ends and D or L forms follow the SMILES beside them. *: point of attachment. X1 = CN(C)c1ccc2c(c1)Oc1cc(N(C)C)ccc1C21OC(=O)c2ccc(C(=O)*)cc21; C18 diacid = O=C(O)CCCCCCCCCCCCCCCCC(=O)*; PEG3 = NCCOCCOCCOCCC(=O)O

Experiment: Stability determination of TAMRA-labelled adrenomedullin analogues in human blood plasma
Format: in vitro ADME
Conditions: 37° C., 10^-5 M, slow-decay phase half-life, read-out: t1/2 (slow) (converted)
Procedure: The stability of the peptides was investigated using fluorescently labeled analogues, which were prepared as described above.
The TAMRA-labeled analogues were dissolved in 1.5 m1 of human blood plasma to a concentration of 10^−5 M and incubated at 37° C. under constant shaking. Samples of 150 μl were taken at different time points and precipitated with 300 μl Ethanol/ACN (1:1) for at least 1 h at −20° C. After centrifugation for 30 s at 12000 rpm, the supernatant was collected and incubated at −20° C. for at least 3 h. Subsequently, it was transferred into Costar® Spin-X® Centrifuge Tube Filters (0.22 μm) and centrifuged for 1 h at 12000 rpm. The samples were analyzed by RP-HPLC using a VariTide RPC column (Agilent Technologies, 250 mm×4.6 mm, […], 200 Å) with linear gradients of 0.1% TFA in water and 0.08% TFA in ACN; fluorescence measurement (λex=525 nm; λem=572 nm) was used for the detection of the analogues and their N-terminal fragments. The percentage of intact peptide was determined by peak integration. The values of peaks containing additional cleavage fragments were corrected by comparing intensities of cleavage fragments and intact peptide using MALDI-MS analysis (UltraflexIII, Bruker). The stability of the peptides was calculated with GraphPad Prism 5 (GraphPad Software) using a two phase exponential decay function for the determination of slow-decay phase half-lives (ln(2)/Kslow; Kslow: rate constant of slow part of exponential decay).

half-life: > 144 h
Structure (SMILES): CC[C@H](C)[C@H](NC(=O)[C@H](CCC(N)=O)NC(=O)[C@H](Cc1c[nH]cn1)NC(=O)[C@H](C)NC(=O)[C@H](CC(C)C)NC(=O)[C@H](CCCCN)NC(=O)[C@H](CCC(N)=O)NC(=O)[C@@H](NC(=O)[C@@H](NC(=O)[C@@H]1CSSC[C@H](NC(=O)CNC(=O)[C@H](CCCCNC(=O)CCCCCCCCCCCCCCCCC(=O)O)NC(=O)c2ccc3c(c2)C2(OC3=O)c3ccc(N(C)C)cc3Oc3cc(N(C)C)ccc32)C(=O)N[C@@H](CCCNC(=N)N)C(=O)N[C@@H](Cc2ccccc2)C(=O)NCC(=O)N[C@@H]([C@@H](C)O)C(=O)N1)[C@@H](C)O)C(C)C)C(=O)N[C@@H](Cc1ccc(O)cc1)C(=O)N[C@@H](CCC(N)=O)C(=O)N[C@@H](Cc1ccccc1)C(=O)N[C@H](C(=O)NCCOCCOCCOCCC(=O)N[C@@H](CC(=O)O)C(=O)N[C@@H](CC(N)=O)C(=O)N[C@H](C(=O)N[C@@H](C)C(=O)N1CCC[C@H]1C(=O)N[C@H]1CCCCNC(=O)C[C@@H](C(=O)N2CCC[C@H]2C(=O)N[C@@H](CCC(N)=O)C(=O)NCC(=O)N[C@@H](Cc2ccc(O)cc2)C(N)=O)NC(=O)[C@H]([C@@H](C)CC)NC(=O)[C@H](CCCCN)NC(=O)[C@H](CO)NC1=O)C(C)C)[C@@H](C)O [TAM-14] (X1-K(C18 diacid)GCRFGTCTVQKLAHQIYQFT[PEG3]DNVAPKSKIDPQGY-NH2; disulfide 3-8; lactam 28-32)
